Data reported in patent publication US20130052145A1, “ADHESIVE SLOW-RELEASE FORMULATIONS FOR THE LOCAL ADMINISTRATION OF CURCUMIN” (Orphanidis Pharma Research GmbH, priority 2010, published 2013).

Tests used:
[1] = Solubility studies with curcumin in organic solvents and solvent + water mixtures; format: physicochemical
Description: For oral solutions, curcumin must be dissolved. The solvents listed in Table 1 have been tested for this purpose. The maximum concentration of curcumin that could be dissolved is listed for each solvent. If curcumin was soluble, water was added to the solvents and the solubility in this mixture was also determined: […]

[2] = Storage stability of liquid curcumin formulations under accelerated conditions (HPLC); format: physicochemical

For `COc1cc(/C=C/C(=O)CC(=O)/C=C/c2ccc(O)c(OC)c2)ccc1O` [curcumin], the “% Solubility (w/v)” value ([1]; Collidone 12 + water 4 + 6) was 0 % (w/v), the “% Solubility (w/v)” value ([1]; Collidone12 + water 5 + 5) was 0 % (w/v) and the “% Solubility (w/v)” value ([1]; Collidone 17 + water 4 + 6) was 0 % (w/v). For the same compound, the “% Solubility (w/v)” value ([1]; Collidone 17 + water 5 + 5) was 0 % (w/v), the “% Solubility (w/v)” value ([1]; N-Ethyl-2-pyrrolidone + water 6 + 4) was 4 % (w/v) and the “% Solubility (w/v)” value ([1]; N-Ethyl-2-pyrrolidone + water 7 + 3) was 5 % (w/v). For the same compound, the “% Solubility (w/v)” value ([1]; N-Methyl-2-pyrrolidone + water 6 + 4) was 4 % (w/v), the “% Solubility (w/v)” value ([1]; N-Methyl-2-pyrrolidone + water 7 + 3) was 4 % (w/v) and the “% Solubility (w/v)” value ([1]; PEG 300 + water 8 + 2) was 2.5 % (w/v). For the same compound, the “% Solubility (w/v)” value ([1]; PEG 300 + water 9 + 1) was 2.5 % (w/v), the “% Solubility (w/v)” value ([1]; PVP + water 3 + 7) was 0 % (w/v) and the “% Solubility (w/v)” value ([1]; Pluronic F-68 + water 3 + 7) was 0 % (w/v). The “% Solubility (w/v)” value ([1]; Pyrrolidone + water 1 + 9) was 1 % (w/v), the “% Solubility (w/v)” value ([1]; Pyrrolidone + water 5 + 5) was 2.5 % (w/v) and the “% Solubility (w/v)” value ([1]; Pyrrolidone + water 6 + 4) was 3 % (w/v). The “% Solubility (w/v)” value ([1]; Pyrrolidone + water 7 + 3) was 5 % (w/v), the “% Solubility (w/v)” value ([1]; Pyrrolidone + water 9 + 1) was 5 % (w/v) and the “% Solubility (w/v)” value ([1]; solvent Capmul) was 0 % (w/v). The “% Solubility (w/v)” value ([1]; solvent Cremophor) was 0 % (w/v), the “% Solubility (w/v)” value ([1]; solvent Dimethylacetamide) was 4 % (w/v) and the “% Solubility (w/v)” value ([1]; solvent Glycerol) was 0 % (w/v). The “% Solubility (w/v)” value ([1]; solvent Hydrogenated peanut oil) was 0 % (w/v), the “% Solubility (w/v)” value ([1]; solvent Labrafil) was 3 % (w/v) and the “% Solubility (w/v)” value ([1]; solvent Labrasol) was 0 % (w/v). For the same compound, the “% Solubility (w/v)” value ([1]; solvent N-Ethyl-2-pyrrolidone) was 30 % (w/v), the “% Solubility (w/v)” value ([1]; solvent N-Methyl-2-pyrrolidone) was 30 % (w/v) and the “% Solubility (w/v)” value ([1]; solvent PEG 300) was 2.5 % (w/v). For the same compound, the “% Solubility (w/v)” value ([1]; solvent PVA) was 0 % (w/v), the “% Solubility (w/v)” value ([1]; solvent Pluronic L44) was 3 % (w/v) and the “% Solubility (w/v)” value ([1]; solvent Propylene glycol) was 0 % (w/v). The “% Solubility (w/v)” value ([1]; solvent Pyrrolidone) was 20 % (w/v), the “% Solubility (w/v)” value ([1]; solvent Refined corn oil) was 0 % (w/v) and the “Stability in storage of curcumin in PEG formulations” value [2] was “comparatively high stability in storage”.
